Where a name gives a salt, the structure may show the parent alone.
What follows are compounds tested on Plasmodium falciparum (assay: Antiplasmodial activity after 48 hrs against Plasmodium falciparum K1 in human erythrocytes). Conditions: not given.
Assay type: functional, organism-based

Structure (SMILES) | IC50 [µM]
CC(C)=CCC[C@]1(C)[C@@H](CC=C(C)C)C[C@]2(CC=C(C)C)C(=O)C(CC=C(C)C)=C(O)[C@@]1(C(=O)C(C)C)C2=O [listing 1 of 2 here] | 2.1
CC(C)CCC[C@]1(C)[C@@H](CCC(C)C)C[C@@]2(CCC(C)C)C(=O)[C@]1(C(=O)C(C)C)C(=O)C(CCC(C)C)=C2O [OCTAHYDROHYPERFORIN DICYCLOHEXYLAMMONIUM SALT] | 1.4

Same assay, conditions: Plasmodium falciparum, K1, 48 h

Structure (SMILES) | IC50 [µM]
CC(=O)C1=C(O)C=C2Oc3c(C(C)=O)c(O)c(C)c(O)c3C2(C)C1=O (stereo not given) | 16.1
CC(C)=CCC[C@]1(C)[C@@H](CC=C(C)C)C[C@]23CC(C(C)(C)O)OC2=C(CC=C(C)C)C(=O)[C@@]1(C(=O)C(C)C)C3=O (stereo not given in full) [FUROHYPERFORIN] | 1.7
CC(C)CCC[C@]1(C)[C@@H](CCC(C)C)C[C@@]2(CCC(C)C)C(=O)[C@]1(C(=O)C(C)C)C(=O)C(CCC(C)C)=C2O [OCTAHYDROHYPERFORIN] | 2.7
CC(C)=CCC[C@]1(C)[C@@H](CC=C(C)C)C[C@]2(CC=C(C)C)C(=O)C(CC=C(C)C)=C(O)[C@@]1(C(=O)C(C)C)C2=O [listing 2 of 2 here] | 1.5
COC1=C(CC=C(C)C)C(=O)[C@@]2(C(=O)C(C)C)C(=O)[C@]1(CC=C(C)C)C[C@H](CC=C(C)C)[C@@]2(C)CCC=C(C)C | 7.8
CC(C)=CCC[C@]1(C)[C@@H](CC=C(C)C)C[C@]2(CC=C(C)C)C(=O)C(Cl)(CC=C(C)C)C(=O)[C@@]1(C(=O)C(C)C)C2=O (stereo not given in full) | 6.7

More lines, now with the values ahead:

IC50 [µM] | Structure (SMILES)
> 27 | COc1cc(C(=O)OC2=C(CC=C(C)C)C(=O)[C@@]3(C(=O)C(C)C)C(=O)[C@]2(CC=C(C)C)C[C@H](CC=C(C)C)[C@@]3(C)CCC=C(C)C)cc(OC)c1OC [HYPERFORINTRIMETHOXYBENZOATE]
2 | CC(C)=CCC[C@]1(C)[C@@H](CC=C(C)C)C[C@]2(CC=C(C)C)C(=O)[C@@]3(CC=C(C)C)O[C@@]2(O)[C@]1(C(=O)C(C)C)C3=O [HYPERFORINHEMIACETAL]
15.3 | CC(=O)C1=C(O)C=C2Oc3c(C(C)=O)c(O)c(C)c(O)c3[C@@]2(C)C1=O [(+)-USNIC ACID]
3.8 | CC(C)=C/C=C1/OC(=O)[C@@]2(CC=C(C)C)C[C@H](CC=C(C)C)[C@@](C)(CCC=C(C)C)[C@H](C(=O)C(C)C)C(=O)[C@@]12O
4.8 | CC(C)=CCC[C@]1(C)[C@@H](CC=C(C)C)C[C@@]2(CC=C(C)C)C(=O)[C@]1(C(=O)C(C)C)C(=O)C(CC=C(C)C)=C2OC(=O)c1cccnc1 [HYPERFORINNICOTINATE]
0.6 | CC(C)=CCC[C@]1(C)[C@@H](CC=C(C)C)C[C@]2(CC=C(C)C)C(=O)[C@@](O)(CC=C(C)C)C(=O)[C@@]1(C(=O)C(C)C)C2=O
> 27 | CC(C)=CCC[C@]1(C)[C@@H](CC=C(C)C)C[C@]2(CC=C(C)C)C(=O)C(C)(CC=C(C)C)C(=O)[C@@]1(C(=O)C(C)C)C2=O (stereo not given in full)
8.6 | CC(C)=CCC[C@]1(C)[C@@H](CC=C(C)C)C[C@@]2(CC=C(C)C)C(=O)[C@]1(C(=O)C(C)C)C(=O)C1=C2OC(C)(C)C=C1 [DEHYDROHYPERFORIN]

Each compound was assayed on L6 (assay: Cytotoxicity against rat L6 cells after 72 hrs). Conditions: Rattus norvegicus, L6, 72 h.
Assay type: cell-based

Structure (SMILES) | IC50 [µM]
CC(C)=CCC[C@]1(C)[C@@H](CC=C(C)C)C[C@]2(CC=C(C)C)C(=O)[C@@]3(CC=C(C)C)O[C@@]2(O)[C@]1(C(=O)C(C)C)C3=O [HYPERFORINHEMIACETAL] | 16.1
CC(C)=CCC[C@]1(C)[C@@H](CC=C(C)C)C[C@]23CC(C(C)(C)O)OC2=C(CC=C(C)C)C(=O)[C@@]1(C(=O)C(C)C)C3=O (stereo not given in full) [FUROHYPERFORIN] | 16.1
CC(C)CCC[C@]1(C)[C@@H](CCC(C)C)C[C@@]2(CCC(C)C)C(=O)[C@]1(C(=O)C(C)C)C(=O)C(CCC(C)C)=C2O [OCTAHYDROHYPERFORIN] | 2.12
CC(C)=CCC[C@]1(C)[C@@H](CC=C(C)C)C[C@]2(CC=C(C)C)C(=O)C(CC=C(C)C)=C(O)[C@@]1(C(=O)C(C)C)C2=O [listing 2 of 2 here] | 2.21
CC(C)=C/C=C1/OC(=O)[C@@]2(CC=C(C)C)C[C@H](CC=C(C)C)[C@@](C)(CCC=C(C)C)[C@H](C(=O)C(C)C)C(=O)[C@@]12O | 36
CC(C)=CCC[C@]1(C)[C@@H](CC=C(C)C)C[C@@]2(CC=C(C)C)C(=O)[C@]1(C(=O)C(C)C)C(=O)C(CC=C(C)C)=C2OC(=O)c1cccnc1 [HYPERFORINNICOTINATE] | 23.9
CC(C)=CCC[C@]1(C)[C@@H](CC=C(C)C)C[C@]2(CC=C(C)C)C(=O)[C@@](O)(CC=C(C)C)C(=O)[C@@]1(C(=O)C(C)C)C2=O | 19.7

Same assay, conditions: l6

Structure (SMILES) | IC50 [µM]
CC(C)=CCC[C@]1(C)[C@@H](CC=C(C)C)C[C@]2(CC=C(C)C)C(=O)C(CC=C(C)C)=C(O)[C@@]1(C(=O)C(C)C)C2=O [listing 1 of 2 here] | 3.29
CC(C)CCC[C@]1(C)[C@@H](CCC(C)C)C[C@@]2(CCC(C)C)C(=O)[C@]1(C(=O)C(C)C)C(=O)C(CCC(C)C)=C2O [OCTAHYDROHYPERFORIN DICYCLOHEXYLAMMONIUM SALT] | 3.12
